Assay results taken from patent publication US6489165B2, “Chondrocyte-like cells useful for tissue engineering and methods” (The Regents of the University of California, priority 1997, dated 2002).

Key:
Human dermal fibroblasts [1] = experiment: Cell morphology in high density micromass cultures by microscopy; assay type: cell-based
Experimental: (§1) Experiments were designed to examine the effects of functional hypoxia and high density culture conditions on the phenotype of dermal fibroblasts. Human dermal fibroblasts obtained from neonatal foreskin samples were cultured in high density micromass cultures. Briefly, a 10 μl drop of a cell solution at a concentration of 2.0×10^4-4.0×10^4 cells/μl was plated in a 24-well polystyrene tissue culture dish. The cultures were incubated for one hour at 37° C., 5% CO2 to allow the cells to adhere to the bottom of the wells and to enhance cell:cell interactions. Following incubation, the cells were flooded with 1 ml of medium (bringing the final concentration to 2.0×10^5 to 4.0×10^5 cells/ml) containing exogenous factors that promote differentiation along the chondrogenic pathway. Cultures were made functionally hypoxic by the addition of lactate (10-40 mM) to the culture medium. The cells were cultured for a period of 24 hours.
Human neonatal foreskin fibroblasts (HFFs) were cultured in high density micromasses (2.0×10^7 cells/ml in 10 μl) and treated with 40 mM lactic acid and 200 nM staurosporine for a period of 24 hours as previously described by Examples 1 and 2. […]

[2] = test system: fibroblast micromass cultures; experiment: Cell viability by direct microscopic observation; assay type: cell-based, human; conditions: staurosporine alone without lactate priming, at otherwise effective doses
Text: Accordingly, practice of the invention includes treating the cells with the second agent so as to allow a PKA-dependent antagonistic pathway to predominate and to drive chondrogenic differentiation. Suitable chondrogenic differentiation agents include Bisindolylmaleimide I and calphostin C. PKA activators such as dibutyryl cAMP and adenylate cyclase activators (which results in cAMP production and PKA activity) like forskolin may also be effective. A preferred such agent is staurosporine (a protein kinase inhibitor to which PKC is most sensitive), preferably in a range of 150-200 nM.

Human dermal fibroblasts [3] = experiment: [35S]-sulfate incorporation (normalized to [3H]-thymidine) in micromass cultures; assay type: cell-based
Experimental: Thus, human dermal fibroblasts were seeded in monolayer or micromass cultures at a density of 2.0×10^5 cell/ml for 24 hours and left untreated or treated with 40 mM lactate to induce hypoxia. Cultures were labeled with [^3H]-thymidine at 2 μCi/ml and Na2^35SO4 at 5 μCi/ml 24 hours prior to harvest. Relative levels of [^35S]-sulfate uptake (ratio of [^35S]-sulfate to [^3H]-thymidine) were determined by liquid scintillation counting of soluble cell extracts using a dual label DPM counting program. […] Human dermal fibroblasts were seeded in high density micromass cultures at a density of 2.0×10^5 cell/ml, treated with lactate at varying concentrations (0-80 mM) for a 24 hour period, and labeled with [^35S]-sulfate.

Human dermal fibroblasts [4] = experiment: Northern hybridization of total cellular RNA with DIG-labeled probes; assay type: cell-based
Experimental: Gene Expression. […] The expression of TGF-β1 was also examined in cells cultured under identical conditions. […] Human dermal fibroblasts were cultured in monolayer without or with 40 mM lactate or in micromass cultures without or with 40 mM lactate at a density of 3.0×10^5 cell/ml for 24 hours. Total cellular RNA extracted using the Ultraspec isolation system (Biotecx Laboratories, Inc., Houston, Tex.) and fractionated by formaldehyde-agarose gel electrophoresis was hybridized with DIG-labeled probes to human chondroitin sulfate proteoglycan (aggrecan) core protein and TGF-β1. An equal amount of RNA (5 μg) was loaded in each lane and 28s ribosomal RNA served as an internal control.
Human dermal fibroblasts were cultured in monolayer without or with 40 mM lactate or in micromass cultures without or with 40 mM lactate at a density of 2.0×10^5 cell/ml for 24 hours. Total cellular RNA extracted using the Ultraspec isolation system (Biotecx Laboratories, Inc., Houston, Tex.) and fractionated by formaldehyde-agarose gel electrophoresis was hybridized with a DIG-labeled probe to human type I collagen. An equal amount of RNA (5 μg) was loaded in each lane and 28s ribosomal RNA served as an internal control.
Human dermal fibroblasts were seeded in micromass cultures at a density of 2.0×10^5 cells/ml for 24 hours in the presence of 40 mM lactate and varying concentrations of the protein kinase C inhibitors, staurosporine (0, 50, 100, 150, and 200 nM in lanes 1-5, respectively). Total cellular RNA extracted using the Ultraspec isolation system (Biotecx Laboratories, Inc., Houston, Tex.) and fractionated by formaldehyde-agarose gel electrophoresis was hybridized with DIG-labeled probes to human chondroitin sulfate proteoglycan (aggrecan) core protein and type I collagen. An equal amount RNA (5 μg) was loaded in each lane and 28s ribosomal RNA served as an internal control.
(§2) The production of sulfated proteoglycans was assessed by staining with 1% Alcian blue dye (pH 1.0), while monoclonal antibodies to collagen types I (Rockland, Gilbertsville, Pa.) and II (CIICl, Developmental Studies Hybridoma Bank, Iowa City, Iowa), aggrecan (Chemicon, Temecula, Calif.), and cartilage link protein (9/30/8-A-4, DSHB) were used for immuno-histochemical detection employing the Histostain-Plus king (Zymed, South San Francisco, Calif.) with a DAB substrate for final visualization. The expression of type I collagen and transforming growth factor-β1 (TGF-β1) was detected by northern hybridization. Cell-polymer composites were analyzed by scanning electron microscopy and were embedded in glycol methacrylate, sectioned, and stained with hematoxylin and eosin.

[5] = test system: Human neonatal foreskin fibroblasts (HFFs); experiment: Immunohistochemical detection of matrix proteins in micromass cultures; assay type: cell-based
Experimental: Human neonatal foreskin fibroblasts (HFFs) were cultured in high density micromasses (2.0×10^7 cells/ml in 10 μl) and treated with 40 mM lactic acid and 200 nM staurosporine for a period of 24 hours as previously described by Examples 1 and 2. After the initial culture period, the cells were maintained in chemically defined medium consisting of minimum essential medium supplemented with a 1× mixture of Insulin-Transferrin-Selenium (Life Technologies, Gibco BRL, Gaithersburg, Md.), 4.5 g/l glucose, 10 mM β-glycerophosphate, and antibiotics. Dermal fibroblasts isolated from donor tissue were similarly cultured. Additionally, dermal fibroblasts were seeded on three-dimensional polymer scaffolds composed of a non-woven polyglycolic acid (PGA) (Davis and Geck, Danbury, Conn.) mesh reinforced in a dilute solution of 100 kDa poly(L-lactic acid) (PLLA) (Polysciences, Warrington, Pa.).
as §2

Human dermal fibroblasts [6] = conditions: 20 mM lactate; cited from earlier work
Human dermal fibroblasts [7] = experiment: Alcian blue staining of sulfated proteoglycan in monolayer or micromass cultures; assay type: cell-based; conditions: high density micromass, 40 mM lactate, 24 hours, vs untreated and monolayer cultures, P<0.05
Experimental: as §1
Matrix Deposition. Treated micromass cultures synthesized highly negatively charged sulfated proteoglycan aggregates, as detected using histological and biochemical methods. […] The intensity of Alcian blue staining from guanidine-HCl extracts was measured using a microplate reader at a wavelength of 595 nm.
The expression of type I collagen and transforming growth factor-β1 (TGF-β1) was detected by northern hybridization.

[8] = whole mount micromass cultures, after three days
[9] = micromass 2.0×10^5 cell/ml, lactate 0-80 mM, 24 hours
[10] = micromass 3.0×10^5 cell/ml, 40 mM lactate, 24 hours, vs untreated and monolayer

Row | Structure (SMILES) | visible effect in lactate-treated micromass cultures (Human dermal fibroblasts [1]; staurosporine about 5-20 nM) | cell viability [2] | sulfate incorporation (Human dermal fibroblasts [3]; staurosporine alone without lactate priming, at otherwise effective doses) | aggrecan core protein gene expression (Human dermal fibroblasts [4]; micromass, 40 mM lactate plus 150 nM staurosporine, 24 hours) | aggrecan core protein gene expression (Human dermal fibroblasts [4]; micromass, 40 mM lactate plus 200 nM staurosporine, 24 hours) | type I collagen gene expression (Human dermal fibroblasts [4]; micromass, 40 mM lactate plus staurosporine 50-200 nM (all supplemented cultures), 24 hours) | fibroblast outgrowth from the micromass cultures (Human dermal fibroblasts [1]; 40 mM lactate as compared to 20 mM lactate) | type I collagen immunostaining ([5]; micromass cultures) | aggrecan immunostaining [5, 8] | cartilage link protein immunostaining [5, 8] | hyaluronan synthesis (Human dermal fibroblasts [6]) | relative [35S]-sulfate incorporation (ratio to [3H]-thymidine) (Human dermal fibroblasts [3]; high density micromass, 40 mM lactate, 24 hours, vs corresponding cultures, P<0.05) | lactate concentration at which sulfate uptake peaks (Human dermal fibroblasts [3]; [9]) | sulfate uptake versus lactate concentration (Human dermal fibroblasts [3]; [9]) | TGF-β1 expression levels (Human dermal fibroblasts [4]; HFFs on PGA/PLLA discs, all groups) | expression of type I collagen (Human dermal fibroblasts [4]; HFFs on PGA/PLLA discs, treated vs untreated control) | type I collagen gene expression (Human dermal fibroblasts [4]; micromass 2.0×10^5 cell/ml, 40 mM lactate, 24 hours) | TGF-β1 gene expression (Human dermal fibroblasts [4]; [10]) | aggrecan core protein gene expression (Human dermal fibroblasts [4]; [10]) | intensity of Alcian blue staining (sulfated proteoglycan content), 595 nm (Human dermal fibroblasts [7])
1 | CN[C@@H]1C[C@H]2O[C@@](C)([C@@H]1OC)n1c3ccccc3c3c4c(c5c6ccccc6n2c5c31)C(=O)NC4 [staurosporine] | no visible effect | deleterious effect | decreased levels | notable increase | notable increase | marked decrease | – | – | – | – | – | – | – | – | – | – | – | – | – | –
2 | CC(O)C(=O)O (centres unmarked) [lactate] | – | – | – | – | – | – | less fibroblast outgrowth | only on the periphery | Minimal staining | Minimal staining | increased | Significantly greater levels | 20 to 40 mM | dose-dependent increase | remained similar in all groups | greater in untreated control cultures | noticeable decrease | marked increase | marked increase | significantly greater degree of staining
